Results from US20240246916A1, “7-NITRO-8-HYDROXYQUINOLINE DERIVATIVES, PREPARATION METHOD THEREFORE AND MEDICAL USE THEREOF” (Jiangsu Yahong Meditech Co., Ltd., priority 2021, published 2024).
≈ marks a conversion by molar mass, not a printed value.

Key:
Type in all cases: cell-based
[1] = test system: Escherichia coli (carbapenem-resistant clinical isolate; ATCC25922); test: MIC by micro broth dilution (CLSI), Escherichia coli; conditions: Escherichia coli; for MIC50 / MIC90: ATCC25922, Clinical strain; for MIC50: read-out: MIC50; for MIC90: read-out: MIC90; for MIC: Standard strain ATCC25922, read-out: MIC
Source text: (§1) The test bacteria were one strain of clinically isolated carbapenem-resistant Escherichia coli, two strains of carbapenem-resistant Acinetobacter baumannii, two strains of methicillin-resistant Staphylococcus aureus, two strains of sensitive Staphylococcus aureus, and 7 strains of Klebsiella pneumoniae. Duplicate strains isolated from the same patient were eliminated. There were also […] quality control strains Escherichia coli ATCC25922, Acinetobacter baumannii ATCC19606, Staphylococcus aureus ATCC29213, Klebsiella pneumoniae ATCC BAA-1705, ATCC 43816, ATCC BAA-2472, ATCC-BAA-1898, ATCC-BAA-1899, NCTC 13440 and ATCC-BAA-2470. There were 24 strains in total.
(§2) According to the recommendations of relevant documents of the American Clinical and Laboratory Standards Institute (CLSI), the micro broth dilution method was used to determine the MIC of the compounds of the present invention against clinically isolated strains. • 3.1 Formulation of antibacterial drug: All the compounds of the present invention were dissolved in DMSO. The drug concentration range was 128 mg/L to 0.06 mg/L. • 3.2 Culture medium: The drug susceptibility test used cation adjusted Mueller-Hinton broth (CAMHB). • 3.3 Amount of inoculum: The test bacteria cultured overnight were adjusted to 0.5 McFarland turbidity by the direct colony suspension method, and diluted 100 folds, the final inoculum amount was 10^5 CFU/mL. • 3.4 Culture conditions: The test bacteria were cultured at 35±2° C. for 20 hours in air.
(§3) The drug susceptibility test results were interpretated by reference to CLSI 2019 M100 29th edition criteria.
(§4) The quality control strains of the drug susceptibility test were Escherichia coli ATCC 25922, Acinetobacter baumannii ATCC 19606, Staphylococcus aureus ATCC 29213, Klebsiella pneumoniae ATCC BAA-1705, ATCC 43816, ATCC BAA-2472, ATCC-BAA-1898, ATCC-BAA-1899, NCTC 13440 and ATCC-BAA-2470.
(§5) The results of drug susceptibility test were statistically analyzed by WHONET software (version 5.6).

[2] = test system: Staphylococcus aureus (methicillin-resistant and sensitive clinical isolates; ATCC29213); test: MIC by micro broth dilution (CLSI), Staphylococcus aureus; conditions: for MIC50 / MIC90: Clinical strain; for MIC50: read-out: MIC50; for MIC90: read-out: MIC90; for MIC: Standard strain ATCC29213, read-out: MIC
Source text: as §1, §2, §3, §4, §5

[3] = test system: Acinetobacter baumannii (carbapenem-resistant clinical isolates; ATCC19606); test: MIC by micro broth dilution (CLSI), Acinetobacter baumannii; conditions: Acinetobacter baumannii; for MIC50 / MIC90: ATCC19606, Clinical strain; for MIC50: read-out: MIC50; for MIC90: read-out: MIC90; for MIC: Standard strain ATCC19606, read-out: MIC
Source text: as §1, §2, §3, §4, §5

SMILES | MIC50 [1] [µg/mL] | MIC90 [1] [µg/mL] | MIC [1] [µg/mL] | MIC50 [2] [µg/mL] | MIC90 [2] [µg/mL] | MIC [2] [µg/mL] | MIC50 [3] [µg/mL] | MIC90 [3] [µg/mL] | MIC [3] [µg/mL]
O=[N+]([O-])c1cc(Cl)c2cc(CN3CCOCC3)cnc2c1O [Example 96, 5-chloro-3-(morpholinomethyl)-7-nitroquinolin-8-ol] | > 128 | > 128 | > 128 | 32 (≈ 98.8 µM) | 64 (≈ 198 µM) | 32 (≈ 98.8 µM) | > 128 | > 128 | > 128
O=[N+]([O-])c1ccc2cc(CN3CCOCC3)cnc2c1O [Example 97, 3-(morpholinomethyl)-7-nitroquinolin-8-ol] | > 128 | > 128 | > 128 | 128 (≈ 442 µM) | 128 (≈ 442 µM) | 128 (≈ 442 µM) | 128 (≈ 442 µM) | > 128 | 128 (≈ 442 µM)
CCN(CC)Cc1cnc2c(O)c([N+](=O)[O-])ccc2c1 [Example 98, 3-((diethylamino)methyl)-7-nitroquinolin-8-ol] | 128 (≈ 465 µM) | 128 (≈ 465 µM) | 64 (≈ 232 µM) | 32 (≈ 116 µM) | 64 (≈ 232 µM) | 64 (≈ 232 µM) | 64 (≈ 232 µM) | 128 (≈ 465 µM) | 64 (≈ 232 µM)
CNCc1cc([N+](=O)[O-])c(O)c2ncccc12.Cl.Cl [Example 99, 5-((methylamino)methyl)-7-nitroquinolin-8-ol dihydrochloride] | > 128 | > 128 | > 128 | > 128 | > 128 | > 128 | > 128 | > 128 | 128
O=C1CN(Cc2cnc3c(O)c([N+](=O)[O-])ccc3c2)CCN1 [Example 100, 4-((8-hydroxy-7-nitroquinolin-3-yl)methyl)piperazin-2-one] | > 128 | > 128 | > 128 | > 128 | > 128 | > 128 | > 128 | > 128 | > 128
Cl.Cl.Cl.O=[N+]([O-])c1cc(CN2CCNCC2)c2cccnc2c1O [Example 101, 7-nitro-5-(piperazin-1-ylmethyl)quinolin-8-ol trihydrochloride] | > 128 | > 128 | > 128 | > 128 | > 128 | > 128 | > 128 | > 128 | > 128
Cl.Cl.Cl.O=[N+]([O-])c1ccc2cc(CN3CCNCC3)cnc2c1O [Example 102, 7-nitro-3-(piperazin-1-ylmethyl)quinolin-8-ol trihydrochloride] | > 128 | > 128 | 128 | > 128 | > 128 | > 128 | > 128 | > 128 | > 128
CCNCc1cc([N+](=O)[O-])c(O)c2ncccc12.Cl.Cl [Example 103, 5-((ethylamino)methyl)-7-nitroquinolin-8-ol dihydrochloride] | > 128 | > 128 | > 128 | > 128 | > 128 | > 128 | > 128 | > 128 | > 128
CN(C)Cc1cc([N+](=O)[O-])c(O)c2nccc(C(F)(F)F)c12 [Example 104, 5-((dimethylamino)methyl)-7-nitro-4-(trifluoromethyl)quinolin-8-ol] | > 128 | > 128 | 128 (≈ 406 µM) | > 128 | > 128 | > 128 | > 128 | > 128 | > 128
O=[N+]([O-])c1cc(Cl)c2c(N3CCCC(c4ccccc4)C3)ccnc2c1O (stereo not drawn) [Example 111, 5-chloro-7-nitro-4-(3-phenylpiperidin-1-yl)quinolin-8-ol] | > 128 | > 128 | > 128 | > 128 | > 128 | > 128 | > 128 | > 128 | > 128
O=[N+]([O-])c1c(Cl)c(Cl)c2cccnc2c1O [Example 115, 5,6-dichloro-7-nitroquinolin-8-ol] | 64 (≈ 247 µM) | 64 (≈ 247 µM) | 16 (≈ 61.8 µM) | 1 (≈ 3.86 µM) | 1 (≈ 3.86 µM) | 2 (≈ 7.72 µM) | 4 (≈ 15.4 µM) | 4 (≈ 15.4 µM) | 4 (≈ 15.4 µM)
O=[N+]([O-])c1cc(Cl)c2c(N3CCCC(F)(F)C3)ccnc2c1O [Example 118, 5-chloro-4-(3,3-difluoropiperidin-1-yl)-7-nitroquinolin-8-ol] | > 128 | > 128 | > 128 | 8 (≈ 23.3 µM) | 128 (≈ 372 µM) | 128 (≈ 372 µM) | 128 (≈ 372 µM) | > 128 | > 128
O=[N+]([O-])c1cc(Cl)c2c(N3CCCC(F)C3)ccnc2c1O (stereo not drawn) [Example 119, 5-chloro-4-(3-fluoropiperidin-1-yl)-7-nitroquinolin-8-ol] | > 128 | > 128 | > 128 | 16 (≈ 49.1 µM) | 128 (≈ 393 µM) | 128 (≈ 393 µM) | 128 (≈ 393 µM) | > 128 | > 128

Further lines, results first:

MIC50 [1] [µg/mL] | MIC90 [1] [µg/mL] | MIC [1] [µg/mL] | MIC50 [2] [µg/mL] | MIC90 [2] [µg/mL] | MIC [2] [µg/mL] | MIC50 [3] [µg/mL] | MIC90 [3] [µg/mL] | MIC [3] [µg/mL] | SMILES
16 (≈ 66 µM) | 64 (≈ 264 µM) | 8 (≈ 33 µM) | 2 (≈ 8.24 µM) | 2 (≈ 8.24 µM) | 4 (≈ 16.5 µM) | 8 (≈ 33 µM) | 8 (≈ 33 µM) | 8 (≈ 33 µM) | O=[N+]([O-])c1c(F)c(Cl)c2cccnc2c1O [Example 110, 5-chloro-6-fluoro-7-nitroquinolin-8-ol]
64 (≈ 278 µM) | 128 (≈ 556 µM) | 32 (≈ 139 µM) | 2 (≈ 8.69 µM) | 4 (≈ 17.4 µM) | 4 (≈ 17.4 µM) | 8 (≈ 34.7 µM) | 32 (≈ 139 µM) | 32 (≈ 139 µM) | O=[N+]([O-])c1ccc2cc(C3CC3)cnc2c1O [Example 112, 3-cyclopropyl-7-nitroquinolin-8-ol]
16 (≈ 70.9 µM) | 16 (≈ 70.9 µM) | 8 (≈ 35.5 µM) | 4 (≈ 17.7 µM) | 4 (≈ 17.7 µM) | 4 (≈ 17.7 µM) | 8 (≈ 35.5 µM) | 16 (≈ 70.9 µM) | 8 (≈ 35.5 µM) | [2H]c1ccc2c(Cl)cc([N+](=O)[O-])c(O)c2n1 [Example 113, 5-chloro-7-nitroquinolin-2-d-8-ol]
64 (≈ 211 µM) | 64 (≈ 211 µM) | 16 (≈ 52.7 µM) | 2 (≈ 6.59 µM) | 2 (≈ 6.59 µM) | 2 (≈ 6.59 µM) | 4 (≈ 13.2 µM) | 8 (≈ 26.4 µM) | 8 (≈ 26.4 µM) | O=[N+]([O-])c1c(Br)c(Cl)c2cccnc2c1O [Example 114, 6-bromo-5-chloro-7-nitroquinolin-8-ol]
16 (≈ 83.7 µM) | 16 (≈ 83.7 µM) | 8 (≈ 41.8 µM) | 4 (≈ 20.9 µM) | 8 (≈ 41.8 µM) | 4 (≈ 20.9 µM) | 4 (≈ 20.9 µM) | 4 (≈ 20.9 µM) | 4 (≈ 20.9 µM) | [2H]c1ccc2ccc([N+](=O)[O-])c(O)c2n1 [Example 116, 7-nitroquinolin-2-d-8-ol]
8 (≈ 41.8 µM) | 16 (≈ 83.7 µM) | 8 (≈ 41.8 µM) | 4 (≈ 20.9 µM) | 8 (≈ 41.8 µM) | 4 (≈ 20.9 µM) | 4 (≈ 20.9 µM) | 4 (≈ 20.9 µM) | 4 (≈ 20.9 µM) | [2H]c1cc2cccnc2c(O)c1[N+](=O)[O-] [Example 117, 7-nitroquinolin-6-d-8-ol]
32 (≈ 142 µM) | 32 (≈ 142 µM) | 16 (≈ 70.9 µM) | 4 (≈ 17.7 µM) | 16 (≈ 70.9 µM) | 8 (≈ 35.5 µM) | 8 (≈ 35.5 µM) | 16 (≈ 70.9 µM) | 8 (≈ 35.5 µM) | [2H]c1ccnc2c(O)c([N+](=O)[O-])cc(Cl)c12 [Example 120, 5-chloro-7-nitroquinolin-4-d-8-ol]
